Key:
AAA = details: in vivo; cited from earlier work
[1] = test system: CD28− mice treated with angiotensin II; assay: CD28− mice treated with angiotensin II and trichostatin; format: in vivo, mouse; details: 1 mg/kg/day for 14 days, angiotensin II-infused CD28− mice
Protocol: Baseline blood pressure measurements were determined on 5 consecutive days. After these baseline recordings, an osmotic minipump (Alzet Model 2004; DURECT) infusing Angiotensin II (Ang II) (Sigma, St. Louis, Mo.) at a rate of 1,000 ng/kg/min was implanted s.c. and blood pressure measurements continued for 28 days to verify continuous hypertension. The animals ingested either a normal diet containing 0.4% sodium chloride or a high salt diet with 5% sodium chloride (SDS) to accentuate hypertension and kidney injury. All animals studied were between 8 and 14 wk old. The protocol followed the French Department of Agriculture and the National Institute of Health guidelines for animal care and protection. For both strains, all experiments used age- and sex-matched wild-type and genetically altered animals with similar genetic background (C57Bl/6J background). Normal C57Bl/6J and CD28 deficient animals were obtained from Charles River Laboratories. B7.1/B7.2 (CD80/CD86) deficient animals were obtained from Dr. Benoit Salomon (Université Pierre et Marie Curie-CNRS U7087 laboratory, Paris). Anti-pan-TGF-beta antibody (clone 2G7) was administrated thrice a week i.p. at the dose of 500 μg/mouse for two weeks, then at the dose of 150 μg/mouse for the following two weeks. […]

Row | Compound | effects in AAA (AAA) | aneurysm [1]
1 | CC[C@H]1OC(=O)[C@H](C)[C@@H](O[C@H]2C[C@@](C)(OC)[C@@H](O)[C@H](C)O2)[C@H](C)[C@@H](O[C@@H]2O[C@H](C)C[C@H](N(C)C)[C@H]2O)[C@](C)(O)C[C@@H](C)/C(=N\OCOCCOC)[C@H](C)[C@@H](O)[C@]1(C)O [roxithromycin] | modest effects | 
2 | CC(/C=C/C(=O)NO)=C\[C@@H](C)C(=O)c1ccc(N(C)C)cc1 [trichostatin] |  | prevented aneurysm
